Molecules are shown by their SMILES. pIC50: −log10 of the molar value.

Usually pIC50 stands for the IC50 on a negative log10 scale, so that one unit is a factor of ten.

Sequence of Prostaglandin G/H synthase 2 (Homo sapiens) (P35354 whole entry, looked up): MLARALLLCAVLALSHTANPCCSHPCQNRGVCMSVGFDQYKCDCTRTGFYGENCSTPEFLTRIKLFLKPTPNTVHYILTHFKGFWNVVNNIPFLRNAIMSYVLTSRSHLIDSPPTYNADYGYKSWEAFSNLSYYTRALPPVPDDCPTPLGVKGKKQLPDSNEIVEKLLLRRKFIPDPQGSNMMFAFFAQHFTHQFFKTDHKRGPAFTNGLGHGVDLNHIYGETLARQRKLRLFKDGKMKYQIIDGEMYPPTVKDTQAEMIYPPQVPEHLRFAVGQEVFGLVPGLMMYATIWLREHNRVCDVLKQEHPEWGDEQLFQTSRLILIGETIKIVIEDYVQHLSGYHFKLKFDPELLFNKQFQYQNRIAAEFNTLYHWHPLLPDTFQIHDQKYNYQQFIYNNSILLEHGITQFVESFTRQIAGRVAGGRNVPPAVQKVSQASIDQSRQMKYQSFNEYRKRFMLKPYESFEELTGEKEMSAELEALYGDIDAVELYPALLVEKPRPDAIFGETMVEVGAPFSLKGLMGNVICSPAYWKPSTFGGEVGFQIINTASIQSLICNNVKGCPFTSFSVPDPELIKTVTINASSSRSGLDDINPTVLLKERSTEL

This assay concerns the target Prostaglandin G/H synthase 2 (Homo sapiens) (UniProt P35354). The assay is described as follows: Inhibition of recombinant human COX2 expressed in baculovirus infected Sf21 cells using arachidonic acid as substrate preincubated for 5 mins followed by substrate addition and measured after 5 mins by UV-visible spectrophotometric method.
Turning to `Cc1ccc(C(=O)CC2CC(=O)N(c3ccc(S(N)(=O)=O)cc3)C2=O)cc1` (centres undefined), the negative-log IC50 (pIC50) is 6.01. As to `NS(=O)(=O)c1ccc(N2C(=O)CC(CC(=O)c3ccc(Cl)cc3)C2=O)cc1` (centres undefined), the pIC50 is 5.20.

With `COc1ccc(C(=O)CC2CC(=O)N(c3ccc(S(N)(=O)=O)cc3)C2=O)cc1` (centres undefined), the pIC50 is 5.68. As for `NS(=O)(=O)c1ccc(N2C(=O)CC(CC(=O)c3ccccc3)C2=O)cc1` (centres undefined), the negative logarithm of the IC50 (pIC50) is 5.37. To `NS(=O)(=O)c1ccc(N2C(=O)CC(CC(=O)c3ccccn3)C2=O)cc1` (centres undefined) belongs 5.05. With `NS(=O)(=O)c1ccc(N2C(=O)CC(C3CCCCCC3=O)C2=O)cc1` (centres undefined), the pIC50 is 4.68. As for `O=C1CCCC1C1CC(=O)N(c2ccccc2)C1=O` (centres undefined), the figure is 4.29; as for `O=C1CCCCCC1C1CC(=O)N(c2ccccc2)C1=O` (centres undefined), 4.40; as for `O=C1CCOCC1C1CC(=O)N(c2ccccc2)C1=O` (centres undefined), 4.25. On to `CC1CCC(=O)C(C2CC(=O)N(Cc3ccccc3)C2=O)C1` (centres undefined), for which the pIC50 was 4.66. `CC1CCC(=O)C(C2CC(=O)N(c3ccccc3)C2=O)C1` (centres undefined): the pIC50 is 4.25.

For `O=C1CCCCC1C1CC(=O)N(c2ccc(Br)cc2)C1=O` (centres undefined), the pIC50 was 3.95.

With `O=C1CCCCC1C1CC(=O)N(Cc2ccccc2)C1=O` (centres undefined), the pIC50 was 4.70. For the molecule `O=C1CCCCC1C1CC(=O)N(c2ccccc2)C1=O` (centres undefined), the negative logarithm of the IC50 (pIC50) is 4.35.

The record behind these values is BindingDB's records for doi:10.1016/j.ejmech.2019.111863 (University of Malakand, 2020).
